Legend:
exosome secretion = experiment: Exosome secretion measured by protein concentration; type: cell-based
[1] = test system: reconstituted dental epithelium and mesenchyme tissues; experiment: Organ culture of reconstituted E16.5 dental epithelium and mesenchyme tissue, dentin formation; type: cell-based; settings: 10 uM, control formed dentin at day 10
Experimental: E16.5 epithelium and mesenchyme tissue (see e.g., FIG. 9A) were reconstituted (see e.g., FIG. 9B) under dissection microscope. The reconstituted organ were cultured for 12 days (see e.g., FIG. 9C-D).

Structure (SMILES): O=C(/C=C/c1ccc(/C=C/C(=O)Nc2ccc(C3=NCCN3)cc2)cc1)Nc1ccc(C2=NCCN2)cc1 [GW4869]
- exosome secretion (exosome secretion; 1.0 uM): decreased
- exosome secretion (exosome secretion; 10.0 uM): decreased
- dentin formation [1]: No dentin formed

Source: US20160120805A1, “EXOSOMES FOR OROFACIAL DIAGNOSTICS AND THERAPEUTICS” (THE TRUSTEES OF COLUMBIA UNIVERSITY IN THE CITY OF NEW YORK, priority 2013, published 2016)
